Data: article PMC6268073, “Synthesis and Antiplasmodial Activity of Betulinic Acid and Ursolic Acid Analogues” (Molecules, 2012)
pIC50: −log10 of the molar value. “Also recorded” adds a separate entry of the source. Like-named read-outs stand apart in the source and are kept apart here.

What was measured:
HEK293T cells = assay: Cytotoxicity assay, dihydroethidium staining, flow cytometry; assay type: cell-based, human; conditions: for Cytotoxicity judgement in words / IC50: HEK293T; for Cytotoxicity judgement in words: tested concentrations 0.001-100 µM; for IC50: Homo sapiens, HEK-293T; for Selectivity Index (SI) 48 h: HEK293T IC50 versus P. falciparum 3D7 IC50, 48 h
Experimental: (§1) Human embryonic kidney (HEK293T) cells were cultured in surface area 75 cm^2 (Greiner Bio-One, Frickenhausen, Germany) vented tissue culture flasks at 37 °C in a humidified atmosphere containing 5% CO2 in Dulbecco’s modified essential medium (Gibco/Life Technologies, Grand Island, NY, USA) supplemented with 10% (v/v) foetal bovine serum, 100 U/mL penicillin and 100 µg/mL streptomycin. After 24 h, 50 µl of each drug was added with 0.5% DMSO or methanol to a single well. The cells were incubated with the test drugs for an additional 24 and 48 h and then harvested with trypsin, gently pelleted by centrifugation and re-suspended in PBS. The cells were stained with dihydroethidium solution (10 mg/mL in phosphate buffered saline), gently vortexed and incubated for 40 min at 37 °C in the dark. Ten thousand gated events were acquired for each sample (FACSCalibur BD and CellQuest software was used for analysis).

[1] = test system: P. falciparum chloroquine-sensitive 3D7 strain; assay: Antiplasmodial assay, microdilution in vitro, flow cytometry; assay type: cell-based, Plasmodium falciparum; conditions: for Antiplasmodial activity grade in words: P. falciparum 3D7; for IC50: chloroquine-sensitive 3D7 strain, 48 h incubation
Experimental: The strains were maintained in human erythrocytes in a gas mixture containing 5% O2, 5% CO2 and 90% N2 [24]. The culture was synchronised by 10% sorbitol treatment. The antimalarial activity was measured using the microdilution technique in vitro. […] Samples were dissolved in water, dimethylsulfoxide (DMSO) or methanol and serially diluted with the culture medium. To evaluate parasitemia, Giemsa staining and flow cytometric analysis were used. The concentration of the drug required to inhibit parasite growth was determined by comparing the fluorescence incorporated into the treated and untreated cultures (control). The concentration causing 50% inhibition (IC50) was determined from the drug concentration response curve.

[2] = Cytotoxicity assay, dihydroethidium staining, flow cytometry; assay type: cell-based, human; conditions: human
Experimental: as §1

[3] = test system: P. falciparum chloroquine-sensitive Thai strain; parameters: method as in PMID 17967541; conditions: chloroquine-sensitive Thai strain ref 10; cited from earlier work
[4] = test system: P. falciparum (3D7) isolated parasites; assay: Cytosolic calcium in isolated parasites loaded with Fluo4/AM (spectrofluorimetry); assay type: cell-based, Plasmodium falciparum; conditions: 2c 100 µM
Experimental: Erythrocytes (RBCs) infected by P. falciparum (3D7) at the trophozoite stage were lysed with 10 mg/mL saponin (in phosphate-buffered saline) in the presence of 20 µg/mL protease inhibitors (pepstatin A, leupeptin, antipain and chymostatin) and benzamidine (0.5 mmol/L). Erythrocyte membranes were then removed through centrifugation (8700 rpm for 10 min at 4 °C). The parasites were washed three times in buffer M (116 mM NaCl, 5.4 mM KCl, 0.8 mM MgSO4, 5.5 mM D-glucose, 50 mM MOPS, pH 7.3) with CaCl2 (2 mM). The parasites were then re-suspended in the same buffer with Fluo4-AM (5 μM) probenecid (1.8 mM), an inhibitor of organic anion transport (to prevent dye sequestration and release), […] protease inhibitors (pepstatin A, leupeptin, antipain and chymostatin) and benzamidine (0.5 mmol/L) for 50 min at 37 °C. The parasite suspension was then washed three times with buffer M. Spectrofluorimetric measurements were performed in a Shimadzu RF-5301 PC instrument at 37 °C with isolated P. falciparum (3D7) parasites (10^8 cells mL^−1) incubated with MOPS buffer in a 1 mL cuvette. Compound 2c (100 μM) and THG (10 μM) were added during time course experiments, and excitation/emission wavelengths were adjusted to 505/530 nm for Fluo4-AM. Methanol (0.05%) was used as a control. […]

Plasmodium 3D7 strain = test system: Plasmodium 3D7 strain; parameters: method as in PMID 14697777; conditions: 3D7 strain ref 7; read-out: IC50 anti-Plasmodium 3D7 strain; cited from earlier work
P. berghei = test system: P. berghei; parameters: method as in PMID 10190183; conditions: 250 mg/kg/day ref 6; cited from earlier work
[5] = 24 h, read-out: IC50 (µM) HEK293T 24 h
[6] = 48 h, read-out: IC50 (µM) HEK293T 48 h
[7] = Plasmodium falciparum, n = 3, read-out: IC50 (µM) P. falciparum 3D7
[8] = Plasmodium falciparum, values in nM, read-out: IC50 P. falciparum 3D7

Row | SMILES | IC50 (HEK293T cells; [5]) [µM] | IC50 (HEK293T cells; [6]) [µM] | Antiplasmodial activity grade in words [1] | IC50 [1, 7] [µM] | Selectivity Index (SI) 48 h (HEK293T cells) | other results
1 | C=C(C)[C@@H]1CC[C@]2(C(=O)O)CC[C@]3(C)[C@H](CC[C@@H]4[C@@]5(C)CC[C@H](OC(C)=O)C(C)(C)[C@@H]5CC[C@]43C)[C@@H]12 [1a, 3-O-Acetylbetulinic acid] | > 100 | > 100 | good activity | 4 |  | Cytotoxicity judgement in words (HEK293T cells): not toxic; also recorded: not cytotoxic at the tested concentrations
2 | C=C(C)[C@@H]1CC[C@]2(C(=O)NCCCN3CCN(CCCNC(=O)OC(C)(C)C)CC3)CC[C@]3(C)C(CCC4[C@@]5(C)CC[C@H](OC(C)=O)C(C)(C)C5CC[C@]43C)C12 (some centres unmarked) [1b, N-{3-[4-(3-Aminopropyl)piperazinopropyl]terbutylcarbamate}-3-acetylbetulinamide] | 4 | 4 | good activity | 5 | 0.8 | melting point: 129 °C; pIC50 [2]: 5.40
3 | C=C(C)[C@@H]1CC[C@]2(C(=O)NCCCN3CCN(CCCN)CC3)CC[C@]3(C)C(CCC4[C@@]5(C)CC[C@H](OC(C)=O)C(C)(C)C5CC[C@]43C)C12 (some centres unmarked) [1c, N-{3-[4-(3-aminopropyl)piperazinyl]propyl}-3-acetylbetulinamide] | 4 | 4 | excellent activity | 0.22 | 18 | melting point: 120 °C; pIC50 [2]: 5.40; IC50 [1, 8]: 0.175 to 0.22 µM
4 | CC(=O)O[C@H]1CC[C@@]2(C)C(CC[C@]3(C)C2CC=C2C4[C@@H](C)[C@H](C)CC[C@]4(C(=O)O)CC[C@]23C)C1(C)C (some centres unmarked) [2a] |  |  |  | 14 |  | 
5 | CC(=O)O[C@H]1CC[C@@]2(C)C(CC[C@]3(C)C2CC=C2C4[C@@H](C)[C@H](C)CC[C@]4(C(=O)NCCCN4CCN(CCCNC(=O)OC(C)(C)C)CC4)CC[C@]23C)C1(C)C (some centres unmarked) [2b] |  |  |  | 15 |  | 
6 | CC(=O)OC1CCC2(C)C(CCC3(C)C2CC=C2C4C(C)C(C)CCC4(C(=O)NCCCN4CCN(CCCN)CC4)CCC23C)C1(C)C (centres unmarked) [2c] | 4 | 4 | excellent activity | 0.175 | 23 | pIC50 [3]: 6.78; Cytotoxicity judgement in words (HEK293T cells): non-toxic; pIC50 ([2]; HEK293T cells, HEK293T, time not stated, read-out: IC50 cytotoxicity HEK293T): 5.40; IC50 [1, 8]: 0.175 to 0.22 µM; Effect on parasite calcium homeostasis, in words ([4]; followed by THG 10 µM): can modulate parasite calcium homeostasis; also recorded: led to an increase in intracellular ion concentrations in P. falciparum; Ca2+ concentration, Fluo4/AM fluorescence after addition of compound ([4]; isolated parasites 10^8 cells mL-1, mean ± SEM, n = 9, P = 0.0004 vs methanol 0.05%): 104.9 a.u.
7 | CCN(CC)CCCC(C)Nc1ccnc2cc(Cl)ccc12 (centres unmarked) [chloroquine, reference compound] |  |  |  |  |  | pIC50 ([1]; Plasmodium falciparum, 3D7, 48 h, read-out: IC50 P. falciparum 3D7): 7.54
8 | C=C(C)[C@@H]1CC[C@]2(C(=O)O)CC[C@]3(C)[C@H](CC[C@@H]4[C@@]5(C)CC[C@H](O)C(C)(C)[C@@H]5CC[C@]43C)[C@@H]12 [compound 1, Betulinic acid] |  |  | moderate activity | 18 |  | pIC50 (Plasmodium 3D7 strain): 4.86; Efficacy in murine malarial model of P. berghei (P. berghei): ineffective
9 | C[C@H]1[C@H](C)CC[C@]2(C(=O)O)CC[C@]3(C)C(=CC[C@@H]4[C@@]5(C)CC[C@H](O)C(C)(C)[C@@H]5CC[C@]43C)[C@H]12 [compound 2, Ursolic acid] |  |  | inactive | 36 |  | 
10 | C=C(C)[C@@H]1CC[C@]2(C(=O)OC)CC[C@]3(C)[C@H](CC[C@@H]4[C@@]5(C)CC[C@H](O)C(C)(C)[C@@H]5CC[C@]43C)[C@@H]12 [methyl betulinate, reference compound] |  |  |  |  |  | pIC50 (Plasmodium 3D7 strain): 5.15
